Results published in paper PMC6582051, “Identification of a natural ligand of the hazel allergen Cor a 1” (Scientific Reports, 2019).

Molecular target: T1, Cor a 1.0401 (Corylus avellana, UniProt Q9SWR4)
T1 construct: gene CORA1.0401; tagless full-length recombinant, 160 aa, E. coli (pET11a, codon-optimised synthetic gene), 15N or 13C/15N labelled
T1 sequence (Q9SWR4 2-161 limits assumed): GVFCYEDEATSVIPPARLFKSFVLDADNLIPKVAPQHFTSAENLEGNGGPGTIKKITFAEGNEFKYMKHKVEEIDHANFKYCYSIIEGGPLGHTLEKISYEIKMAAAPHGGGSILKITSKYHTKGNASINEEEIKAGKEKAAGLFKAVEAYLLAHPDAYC
Assay: 1H, […] HSQC NMR titration
Type: binding
Settings: 298 K, 60 uM protein, up to equimolar ligand, 2.2% DMSO; hydrophobic pocket

O=c1c(O)c(-c2ccc(O)c(O)c2)oc2cc(O)cc(O)c12 [quercetin]
1H,15N HSQC NMR titration: amino acids that were strongest affected by quercetin binding are highlighted in red
